One assay deals with T1, cyclooxygenase-2 (Homo sapiens, UniProt P35354).
T1 construct: human osteosarcoma 143 cells (which specifically express cyclooxygenase-2); endogenous in cells; host or cells: human osteosarcoma 143 cells
T1 sequence (P35354 18-604): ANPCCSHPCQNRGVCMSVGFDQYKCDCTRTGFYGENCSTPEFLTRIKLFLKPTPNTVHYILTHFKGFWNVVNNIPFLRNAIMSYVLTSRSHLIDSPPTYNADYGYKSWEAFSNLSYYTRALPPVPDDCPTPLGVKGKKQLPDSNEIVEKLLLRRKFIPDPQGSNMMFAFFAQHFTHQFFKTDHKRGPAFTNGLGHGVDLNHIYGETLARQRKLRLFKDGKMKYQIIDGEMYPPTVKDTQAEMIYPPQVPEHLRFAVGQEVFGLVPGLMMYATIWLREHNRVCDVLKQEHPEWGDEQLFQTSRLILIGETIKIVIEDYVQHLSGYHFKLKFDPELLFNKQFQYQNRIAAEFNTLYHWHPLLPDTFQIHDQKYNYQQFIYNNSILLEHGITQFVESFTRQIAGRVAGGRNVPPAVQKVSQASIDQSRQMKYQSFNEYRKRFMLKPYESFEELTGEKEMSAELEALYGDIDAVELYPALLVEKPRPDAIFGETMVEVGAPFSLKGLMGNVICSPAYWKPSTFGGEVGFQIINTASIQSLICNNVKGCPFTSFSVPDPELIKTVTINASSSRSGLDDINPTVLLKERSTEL
Put plainly: Inhibition of cyclooxygenase activity: Cox-2 (PGE2 production in response to arachidonic acid, radioimmunoassay; human osteosarcoma 143 cells). The format is cell-based. Particulars: read-out: Cox-2% inhib.; for inhibition at 1 µM: Conc. 1000 nM; for inhibition at 0.1 µM: Conc. 100 nM. The method, then: (§1) Compounds were tested as inhibitors of cyclooxygenase activity in whole cell and microsomal cyclooxygenase assays. Both of these assays measured prostaglandin E2 synthesis in response to arachidonic acid, using a radioimmunoassay. Cells used for whole cell assays, and from which microsomes were prepared for microsomal assays, were human osteosarcoma 143 cells (which specifically express cyclooxygenase-2) and human U-937 cells (which specifically express cyclooxygenase-1). In these assays, 100% activity is defined as the difference between prostaglandin E2 synthesis in the absence and presence of arachidonate addition. Compounds of the present invention are inhibitors of cyclooxygenase-2 and are thereby useful in the treatment of cyclooxygenase-2 mediated diseases as enumerated above. The activities of the compounds against cyclooxygenase may be seen in the representative results shown below. In the assay, inhibition is determined by measuring the amount of prostaglandin E2 (PGE2) synthesized in the presence of arachidonic acid, cyclooxygenase-1 or cyclooxygenase-2 and a putative inhibitor. The IC50 values represent the concentration of putative inhibitor required to return PGE2 synthesis to 50% of that obtained as compared to the uninhibited control. For purposes of this specification, a compound is a selective inhibitor of COX-2 over COX-1 if the ratio of IC50 's for COX-1: COX-2 is 100 or greater, preferably 500 or greater. The results for inhibition of PGE2 production may be seen in Table III.

A further assay deals with T2, cyclooxygenase-1 (Homo sapiens, UniProt P23219).
T2 construct: human U-937 cells (which specifically express cyclooxygenase-1); endogenous in cells; host or cells: human U-937 cells
T2 sequence (P23219 24-599): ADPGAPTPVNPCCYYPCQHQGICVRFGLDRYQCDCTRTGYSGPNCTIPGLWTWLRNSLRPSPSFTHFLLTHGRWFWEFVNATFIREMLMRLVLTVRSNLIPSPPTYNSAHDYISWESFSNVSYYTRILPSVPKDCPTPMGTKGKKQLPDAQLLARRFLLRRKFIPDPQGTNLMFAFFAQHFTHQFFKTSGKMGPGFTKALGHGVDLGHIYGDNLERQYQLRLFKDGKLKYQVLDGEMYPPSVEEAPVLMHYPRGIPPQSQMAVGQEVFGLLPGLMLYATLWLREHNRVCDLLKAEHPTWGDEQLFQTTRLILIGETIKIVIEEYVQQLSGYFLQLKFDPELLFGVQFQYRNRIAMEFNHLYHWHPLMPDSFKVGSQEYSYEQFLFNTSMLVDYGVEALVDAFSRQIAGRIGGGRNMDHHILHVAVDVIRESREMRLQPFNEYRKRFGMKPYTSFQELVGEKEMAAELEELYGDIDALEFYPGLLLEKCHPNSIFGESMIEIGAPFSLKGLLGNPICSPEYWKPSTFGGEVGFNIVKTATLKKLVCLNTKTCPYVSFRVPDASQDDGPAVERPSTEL
Put plainly: Inhibition of cyclooxygenase activity: Cox-1 (PGE2 production in response to arachidonic acid, radioimmunoassay; human U-937 cells). In kind it is cell-based. Particulars: read-out: Cox-1% inhib.; for inhibition at 1 µM: Conc. 1000 nM; for inhibition at 0.1 µM: Conc. 100 nM. The procedure:
as §1

Experimental findings from US6329421A, “Diaryl bicyclic heterocycles as inhibitors of cyclooxygenase-2” (Merck Frosst Canada & Co., priority 1997, dated 2001) are described below.

Take `CS(=O)(=O)c1ccc(-c2c(-c3ccccc3)sc3ccccc23)cc1` [Example 2, 3-(4-(Methanesulfonyl)phenyl)-2-phenylbenzo[b]thiophene]: the values for the inhibition at 1 µM at cyclooxygenase-2 and on cyclooxygenase-1 were 17% and 3%, respectively.

In the case of `NS(=O)(=O)c1ccc(-c2c(-c3ccc(F)c(F)c3)sc3c2COC3=O)cc1` [Example 9, 2-(3,4-Difluorophenyl)-3-(4-(aminosulfonyl)phenyl)4H-thieno-[2,3-c]furan-6-one], on cyclooxygenase-2, the inhibition at 0.1 µM is 98% and the inhibition at 1 µM was determined as 99%. Moreover, at cyclooxygenase-1, the inhibition at 1 µM was 21%.

For the compound `CS(=O)(=O)c1ccc(C2=C(c3ccccc3)C(=O)c3ccccc32)cc1` [Example 3, 3-(4-(Methylsulfonyl)phenyl)-2-phenylinden-1-one], the inhibition at 0.1 µM on cyclooxygenase-2 is 80%; on cyclooxygenase-1, 5%.

Consider `CS(=O)(=O)c1ccc(-c2c(-c3ccc(F)cc3)[nH]c3ccccc23)cc1` [Example 4, 2-(4-Fluorophenyl)-3-(4-(methylsulfonyl)phenyl)indole], for which the inhibition at 0.01 µM on cyclooxygenase-2 (Conc. 10 nM) turned out to be 58%. Moreover, the inhibition at 1 µM on cyclooxygenase-1 is 0%.

Regarding `CS(=O)(=O)c1ccc(-c2c(-c3ccccc3)sc3c2CC(=O)OC3)cc1` [Example 10, 3-(4-(Methylsulfonyl)phenyl)-2-phenyl-4,7-dihydro-thieno[2,3-c]pyran-5-one], on cyclooxygenase-2, the inhibition at 0.1 µM came to 65% and the inhibition at 1 µM amounted to 91%. Further, the inhibition at 1 µM at cyclooxygenase-1 worked out at 28%.

Take `CS(=O)(=O)c1ccc(-c2c(-c3ccccc3)oc3ccccc23)cc1` [Example 1, 3-(4-(Methylsulfonyl)phenyl)-2-phenylbenzo[b]furan]: the inhibition at 0.1 µM on cyclooxygenase-2 was 94%; on cyclooxygenase-1, 0%.

For `CS(=O)(=O)c1ccc(-c2c(-c3ccc(F)cc3)sc3c2COC3=O)cc1` [Example 6, 2-(4-Fluorophenyl)-3-(4-(methylsulfonyl)phenyl)-4H-thieno[2,3-c]furan-6-one], the inhibition at 0.015 µM at cyclooxygenase-2 (Conc. 15 nM) amounted to 50%; on cyclooxygenase-1 (Conc. 15 nM), 0%.

Take `CS(=O)(=O)c1ccc(-c2[nH]c3ccccc3c2-c2ccc(F)cc2)cc1` [Example 5, 3-(4-Fluorophenyl)-2-(4-(methylsulfonyl)phenyl)indole]: the inhibition at 0.1 µM amounted to 86% on cyclooxygenase-2 and 21% on cyclooxygenase-1.

`NS(=O)(=O)c1ccc(-c2c(-c3ccc(F)cc3)sc3c2COC3=O)cc1` [Example 8, 2-(4-Fluorophenyl)-3-(4-(aminosulfonyl)phenyl)-4H-thieno[2,3-c]furan-6-one]: the inhibition at 0.1 µM on cyclooxygenase-2 was determined as 42%. Moreover, at cyclooxygenase-1 (Conc. 10000 nM), the inhibition at 10 µM amounted to 26%.

In the case of `CS(=O)(=O)c1ccc(-c2c(-c3ccc(F)c(F)c3)sc3c2COC3=O)cc1` [Example 7, 2-(3,4-Difluorophenyl)-3-(4-(methylsulfonyl)phenyl)-4H-thieno[2,3-c]-furan-6-one], the inhibition at 0.1 µM on cyclooxygenase-2 was found to be 64%. Besides, the inhibition at 1 µM stood at 100% at cyclooxygenase-2 and 4% on cyclooxygenase-1.
